7 compounds from patent US8481458B2, “Adjuvant for pesticides” (priority 2002, dated 2013) can be followed below.

For one experiment, the system named is Alternaria solani. In words: Fungicide for control of Early Blight on tomatoes. The class given is in vivo. To be noted: tomato plants innoculated with the fungi; ratings after one week. An excerpt:
The tomato plants were innoculated with the fungi. The ratings were made after one week on the percent leaves infected with Alternaria and also the number with bad damage—necrosis.

A further experiment relates to Xanthomonas campestris. In words: Bactericide on bacterial leaf spot on tomatoes. The class given is in vivo. To be noted: tomato plants innoculated with the bacteria; ratings after two weeks. The source says: The tomato plants were innoculated with the bacteria. […] The ratings were made after two weeks on the percent leaves infected.
Experiment [1] has as its system fireblight on Southern Crepe Myrtle. Description: Streptomycin for control of fireblight on Southern Crepe Myrtle. To be noted: infected plants sprayed until wet; ratings after two days.
In another experiment the test system is Eastern Tent caterpillar. In words: Ingestion insecticide sprayed on the tent. It is filed as in vivo. To be noted: evaluated 1 day after application. The protocol: This test involved the evaluation of an ingestion insecticide on the Eastern Tent caterpillar. The insecticide was mixed in a tank at the shown rate and sprayed on the tent, and the evaluation was performed after 1 day following application.

For a further experiment, the system named is potato vines. In words: Dessication of potato vines before harvest (speed). The class given is in vivo. To be noted: for Defol %: at the time printed in column Hour; for Hour: time at which the printed Defol % was seen. The source says: This example was used to how various permeabilizers are able to improve the speed in which various active components are able to obtain their desired effects on treated plants. In this example, a combination of oxalic acid and citric acid (Adjuvant 1) was used in combination with the harvest aid chemicals paraquat and diquat for the dessication of potato vines before harvest and compared to the commercial rates paraquat and diquat.

Another experiment has as its system cotton. Description: Cotton defoliation with oxalic acid, EDTA, citric acid as adjuvants, field plots. It is filed as in vivo. To be noted: Day 7 after spraying, test size field plots. As to the method:
Oxalic acid (Adj II), EDTA (Adj III), and citric acid (Adj IV) were used as an adjuvants with harvest aid chemicals and compared to the commercial products ethephon and ethephon plus cyclanilide. The comparison was for defoliation only at 7 days after spraying on cotton. The tests were conducted on test size field plots, at dosages of 1 pound or 0.5 pounds per acre (#/ac).

Consider `N#Cc1c(Cl)c(Cl)c(Cl)c(C#N)c1Cl` [Chlorothalonil 2.5 pt/ac, chlorothalonil], for which, in the experiment with Alternaria solani, the “Infected Leaflets” value is listed as 60%, the “Infected Leaves” value is listed as 42% and the “Leaflets with >50% Necrosis” value is on record as 42%. For `[Cu+2].[OH-].[OH-]` [Copper 2#/acre, copper hydroxide], the “Percent Leaves Infected” value with Xanthomonas campestris came out at 63%. In the case of `[H]/N=C(/N)N[C@H]1[C@H](O)[C@@H](O)[C@H](O[C@@H]2O[C@@H](C)[C@](O)(C=O)[C@H]2O[C@@H]2O[C@@H](CO)[C@H](O)[C@@H](O)[C@@H]2NC)[C@@H](N/C(N)=N\[H])[C@@H]1O` [Streptomycin, streptomycin], in experiment [1], the “Level Required for Control” value amounted to 60 ppm. Regarding `CS/C(C)=N\OC(=O)N(C)SN(C)C(=O)O/N=C(\C)SC` [Thiodicarb 0.1%, Thiodicarb], in the experiment on Eastern Tent caterpillar, the “Insecticide Efficacy” value worked out at 32%. In the case of `c1cc[n+]2c(c1)-c1cccc[n+]1CC2` [diquat 2 qt/ac, diquat], in the experiment with potato vines, the Defol % was 96% and the Hour worked out at 24 h. As for `O=P(O)(O)CCCl` [eth 1#/ac, ethephon], the Defol % in the experiment on cotton is recorded as 72%.

Consider `C[n+]1ccc(-c2cc[n+](C)cc2)cc1` [paraquat 2 qt/ac, paraquat], for which, in the experiment on potato vines, the Defol % was 98% and the Hour was 36 h.
